The text below walks through data of PubChem BioAssay AID602264 (The Scripps Research Institute Molecular Screening Center, 2012).

Calls of active or inactive are those of the source. The rule behind the calls is not given here.

This assay concerns the target Mu-type opioid receptor (Homo sapiens) + Delta-type opioid receptor (Homo sapiens) (UniProt P35372+P41143). Kind of assay: agonists of MOR-DOR heterodimerization, dose response, counter-screen for MC4R biased agonist project, cell-based, luminescence (AID 602264). Particulars: cell-based OPRM1-OPRD1 heterodimerization.

Mu-type opioid receptor (Homo sapiens) + Delta-type opioid receptor (Homo sapiens), sequence (P35372 whole entry, looked up): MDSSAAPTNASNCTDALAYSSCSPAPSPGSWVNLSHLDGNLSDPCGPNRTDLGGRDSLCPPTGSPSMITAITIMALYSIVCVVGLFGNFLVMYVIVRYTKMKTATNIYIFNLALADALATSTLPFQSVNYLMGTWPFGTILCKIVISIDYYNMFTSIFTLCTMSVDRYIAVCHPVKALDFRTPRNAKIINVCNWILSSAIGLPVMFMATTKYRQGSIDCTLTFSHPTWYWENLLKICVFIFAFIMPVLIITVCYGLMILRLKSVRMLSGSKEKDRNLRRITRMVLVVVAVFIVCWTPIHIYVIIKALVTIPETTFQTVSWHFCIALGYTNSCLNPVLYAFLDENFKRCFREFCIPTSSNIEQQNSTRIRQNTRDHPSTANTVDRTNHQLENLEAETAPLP
Mu-type opioid receptor (Homo sapiens) + Delta-type opioid receptor (Homo sapiens), sequence (P41143 whole entry, looked up): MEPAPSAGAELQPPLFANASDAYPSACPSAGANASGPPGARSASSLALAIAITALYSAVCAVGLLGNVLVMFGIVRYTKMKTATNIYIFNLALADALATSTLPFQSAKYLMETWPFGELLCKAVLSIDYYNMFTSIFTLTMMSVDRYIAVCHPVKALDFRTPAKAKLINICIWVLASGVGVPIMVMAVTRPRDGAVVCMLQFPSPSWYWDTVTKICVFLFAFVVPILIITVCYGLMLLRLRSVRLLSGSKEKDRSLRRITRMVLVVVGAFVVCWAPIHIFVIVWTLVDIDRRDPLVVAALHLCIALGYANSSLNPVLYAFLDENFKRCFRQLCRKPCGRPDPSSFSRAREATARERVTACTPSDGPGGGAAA

One may read the EC50 as the concentration needed to bring the measured effect to its halfway point. In the case of `NC(N)=Nc1nc(-c2ccccc2)c2cc(Cl)ccc2n1`, the EC50 was > 10.3 µM (inactive).
With `Cc1ccc(O)c(C(=O)/C=C/c2ccc3c(c2)OCCCO3)c1`, the EC50 is > 64.6 µM (inactive).
In the case of `Cc1ccc(C2=NN(C(=O)c3cccs3)C(c3ccccc3O)C2)cc1` (stereo not drawn) it was > 64.6 µM (inactive); in that of `Cc1cc(C)c2nc(Nc3nc(-c4ccccc4)cc(=O)[nH]3)nc(C)c2c1`, > 92.5 µM (inactive); in that of `Cc1ccccc1-c1nc(-c2ccc(NC(=O)c3ccc(Br)o3)cc2)no1`, > 92.5 µM (inactive).
As for `COc1ccc(-c2cc(NC(C)=O)c3ncc(-c4cccc(C(F)(F)F)c4)n3c2)c(OC)c1`, the figure is > 92.5 µM (inactive); as for `COc1cc(NC(=O)Nc2nc(C(N)Cc3ccc(C(F)(F)F)cc3)cs2)cc(OC)c1OC` (stereo not drawn), > 10.3 µM (inactive).
In the case of `COc1ccc2c(c1)CCc1c(C(=O)Nc3ccn(Cc4ccc(C)cc4)n3)noc1-2` it was > 92.4 µM (inactive).
As for `CC1=NNC(=O)/C1=C\c1cn(-c2ccccc2)nc1-c1ccc(Cl)cc1`, the EC50 is > 92.5 µM (inactive).
In the case of `O=C(NC(c1ccc(Cl)cc1)c1ccccn1)C1CCN(CCOc2ccc(Cl)cc2Cl)CC1` (stereo not drawn) it was > 92.4 µM (inactive); in that of `O=C(Nc1cc(-c2nc3ccccc3s2)ccc1Cl)c1ccc2c(c1)OCO2`, > 92.4 µM (inactive).
In the case of `Nc1c(-c2cccs2)cnn1-c1nc(-c2ccc(Cl)cc2Cl)cs1` it was > 64.6 µM (inactive).
In the case of `COc1cccc(-c2cnc3c(NC(C)=O)cc(-c4cc(F)ccc4OC)cn23)c1` it was > 92.5 µM (inactive); in that of `COc1cccc(-c2cnc3c(NC(C)=O)cc(-c4cc(OC)c(OC)c(OC)c4)cn23)c1`, > 64.6 µM (inactive).
In the case of `CCSc1nnc(NC(=O)c2csc3c2CCCC3)s1`, the EC50 is > 92.5 µM (inactive).
Regarding `COc1cccc(-c2cnc3c(NC=O)cc(-c4ccoc4)cn23)c1`, the EC50 was > 64.6 µM (inactive).
As for `O=C(NC(c1ccccc1)c1ccc2ccccc2n1)C1CCN(CCOc2ccc(Cl)cc2Cl)CC1` (stereo not drawn), the entry is “inactive”.
With `Cc1ccc2[nH]c(=O)c3cc(C(=O)N(CCCOC(C)C)Cc4ccco4)sc3c2c1`, the EC50 is > 92.5 µM (inactive).
In the case of `CCN1/C(=C/c2ccc3cc(C)ccc3[n+]2CC)Sc2cc(C)c(C)cc21` it was > 10.3 µM (inactive); in that of `COc1cc(NS(=O)(=O)c2ccc(NC(=S)NC(=O)c3sc4ccccc4c3Cl)cc2)ncn1`, > 92.4 µM (inactive).
For `CN(C)CCCNC(=O)c1ccc(-c2nc(-c3ccc(Cl)cc3)cs2)cc1`, the EC50 is > 64.6 µM (inactive).
As for `CC(/C=C/C=C/c1ccccc1)=N/NC(=O)CNc1ccccc1C`, the figure is > 64.6 µM (inactive); as for `COc1cc(NC(=O)COc2ccccc2[N+](=O)[O-])ccc1NC(=O)c1cccs1`, > 92.5 µM (inactive).
As for `O=C(c1ccc(COc2ccc(Br)cc2)o1)N1N=C(C(F)F)CC1(O)C(F)F` (stereo not drawn), the entry is “inactive”.
On to `COc1ccc(-c2cc(NC(C)=O)c3ncc(-c4ccc(OC)c(OC)c4)n3c2)cc1OC`, for which the EC50 was > 64.6 µM (inactive).
As for `CC(=O)Nc1cc(-c2cccc(C(=O)N(C)C)c2)cn2c(-c3ccc(F)c(Cl)c3)cnc12`, the figure is > 64.6 µM (inactive).
In the case of `COc1ccccc1-c1cc(NC(C)=O)c2ncc(-c3cccc(C(C)=O)c3)n2c1` it was > 64.6 µM (inactive); in that of `CCOc1ccc(NC(=O)CSc2nc(-c3cccs3)cc(C(F)(F)F)n2)c([N+](=O)[O-])c1`, > 64.6 µM (inactive); in that of `Cc1ccc(-c2csc3nc4c5ccccc5c(NCCCN(C)C)nn4c(=O)c23)cc1`, > 64.6 µM (inactive).
As for `COc1cccc(-c2cnc3c(NC(C)=O)cc(-c4ccsc4)cn23)c1`, the figure is > 92.5 µM (inactive); as for `COc1cccc(/C=C2/SC(=S)N(CCCC(=O)Nc3ccc(O)cc3)C2=O)c1`, > 92.5 µM (inactive); as for `CCC(C)NC(=O)c1c(N)n(/N=C/c2cccnc2)c2nc3ccccc3nc12` (stereo not drawn), > 92.4 µM (inactive).
Consider `NC(Cc1ccc(Cl)cc1)c1csc(Nc2ccc(-c3ccccc3)nn2)n1` (stereo not drawn), for which the EC50 was > 92.4 µM (inactive).
For `COc1ccc(NC(=O)Nc2nnc(-c3ccccc3SCc3ccccc3)s2)cc1`, the EC50 is > 92.5 µM (inactive).
As for `Cc1nc(NC(=O)c2cccc(-c3cc4ccccc4oc3=O)c2)ccc1Br`, the figure is > 64.6 µM (inactive); as for `COc1cccc(CC2(CO)CCCN(Cc3[nH]c4ccc(C)cc4c3C)C2)c1` (stereo not drawn), > 92.5 µM (inactive); as for `OC(CNCCc1ccc(C(F)(F)F)cc1)COc1cccc2ccccc12` (stereo not drawn), > 92.5 µM (inactive).
In the case of `NC(Cc1ccc(C(F)(F)F)cc1)c1csc(NC(=O)Nc2ccccc2Cl)n1` (stereo not drawn) it was > 64.6 µM (inactive); in that of `COc1ccc(-c2oc3ccc(-c4ccc5c(c4)OCO5)cc3c2C#CC2(O)CCCCC2)cc1`, > 64.6 µM (inactive).
Take `Cc1ccc(O)c(C(=O)/C=C/c2ccc3c(c2)OCCO3)c1`: the EC50 is > 92.5 µM (inactive).
As for `Cc1ccc(C(=O)c2coc3c2C(=O)C(=O)c2ccccc2-3)cc1`, the figure is > 64.6 µM (inactive); as for `CC(=O)Nc1cc(-c2ccccc2N(C)C)cn2c(-c3ccc(F)c(Cl)c3)cnc12`, > 64.6 µM (inactive).
Turning to `Cc1ccc(NC(=S)NC(=O)c2ccc(-c3ccc(Cl)cc3)o2)c(O)c1`, the EC50 is > 64.6 µM (inactive).
In the case of `NC(Cc1ccc(C(F)(F)F)cc1)c1csc(NC(=O)Nc2ccccc2)n1` (stereo not drawn) it was > 92.5 µM (inactive).
In the case of `Cc1cc(C)nc(Nc2nc(C(N)Cc3ccc(C(F)(F)F)cc3)cs2)n1` (stereo not drawn) it was > 92.5 µM (inactive).
In the case of `CCN1CCN(CCNC(=O)c2ccc(/C=C3\Sc4ccccc4N(Cc4ccccc4F)C3=O)cc2)CC1` it was > 92.5 µM (inactive); in that of `CC(=O)Nc1cc(-c2ccc(C(=O)NC3CC3)cc2)cn2c(-c3cccc(C(C)=O)c3)cnc12`, > 64.6 µM (inactive).
With `O=C(CSc1ccccc1)Nc1nnc(/C=C/c2ccccc2)s1`, the EC50 was > 92.5 µM (inactive).
In the case of `COc1cccc2sc(N(CCCN(C)C)C(=O)C(c3ccccc3)c3ccccc3)nc12` it was > 64.6 µM (inactive); in that of `CCCCCCCCCCOC(=O)Cn1c(COc2ccc(OC)cc2)[n+](C)c2ccccc21`, > 92.5 µM (inactive).
For `OC(CNCCc1ccc(C(F)(F)F)cc1)COC(c1ccccc1)c1ccccc1` (stereo not drawn), the EC50 is > 64.6 µM (inactive).
As for `Clc1ccc(/C=N/NC2=Nc3cccc4cccc2c34)cc1`, the EC50 is > 92.4 µM (inactive).
In the case of `CC(=O)Nc1cc(-c2ccc(N(C)C)cc2)cn2c(-c3ccc(F)cc3)cnc12` it was > 64.6 µM (inactive).
As for `Cc1ccc2sc(N(CCCN(C)C)C(=O)CN3C(=O)c4ccccc4C3=O)nc2c1C`, the figure is > 64.6 µM (inactive); as for `CC(=O)Nc1cc(-c2ccc(N(C)C)cc2)cn2c(-c3ccc(F)c(Cl)c3)cnc12`, > 92.5 µM (inactive); as for `NC(c1ccccc1)c1csc(NC(=O)Nc2ccccc2Oc2ccccc2)n1` (stereo not drawn), > 92.5 µM (inactive).
In the case of `COc1ccc(-c2cc(NC(C)=O)c3ncc(-c4cccc(C(C)=O)c4)n3c2)cc1OC` it was > 64.6 µM (inactive); in that of `COc1cccc(-c2cnc3c(NC(C)=O)cc(-c4ccc(C(=O)N5CCOCC5)cc4)cn23)c1`, > 64.6 µM (inactive); in that of `Cc1ccc(OCC(=O)NC(=S)Nc2cccc(NC(=O)c3ccccc3)c2)cc1`, > 64.6 µM (inactive).
Consider `CC(=O)Nc1cc(-c2ccccc2F)cn2c(-c3cccc(C(F)(F)F)c3)cnc12`, for which the EC50 is > 92.5 µM (inactive).
With `COc1ccccc1-c1cc(NC(C)=O)c2ncc(-c3cccc(C(F)(F)F)c3)n2c1`, the EC50 was > 92.5 µM (inactive).
In the case of `CCCCCCCCCCCCCCCC[n+]1ccc(/C=N/O)cc1` it was > 64.6 µM (inactive); in that of `Cc1ccccc1-c1nc(-c2ccc(NC(=O)c3ccc4c(c3)OCO4)cc2)no1`, > 92.4 µM (inactive).
